Data reported in patent US8992996B2, “Cosmetic” (Restorsea, LLC, priority 2012, dated 2015).

Test system: follicles (microcomedones)
Set-up: species or system human
Conditions: in vivo
Experimental: A study is conducted to determine the comedogenic potential of test materials in the form of day cream and eye cream with formulations disclosed above by assessing whether the test materials elicited microcomedones, after four weeks of repeated application under occlusive patch conditions, relative to a negative control (undosed patch). Acetylated Lanolin Alcohol served as a positive control material in order to validate the study. The tests are conducted during a 4 week study period. A total of 15 subjects, ranging in age from 22 to 45 years, are selected for the study. All 15 participants completed the study.

average ratio of microcomedones per follicle: 6%
Substance: Acetylated Lanolin Alcohol
ratio of microcomedones to follicles compared with negative control (statistics): significantly greater ratio than the negative control
